Reference: patent US10420734B2, “Method of treating cancer using selective estrogen receptor modulators” (Duke University, priority 2014, dated 2019)
Values belong to the molecule of their own block, whether it stands above or below them.

Legend:
[1] = tested on: MCF7 cells; assay: MCF7 proliferation in response to E2 or insulin; assay type: cell-based; settings: SERMs and SERDs 10^-6 M, insulin 2×10^-9 M
Experimental: The expression of ESR1 target genes responsive to (FIG. 10A) agonists, (FIG. 10B) primarily SERMs, or (FIG. 10C) SERMs and agonists was analyzed as in FIG. 5. Relative changes of these and additional target genes designed to evaluate dose dependent response to RAD1901 are presented in FIG. 11. Significant target gene regulation (*p<0.05) as compared to the vehicle control was detected by 2 way ANOVA followed by Fisher's LSD (Graphpad Prism 6). […] Triplicate wells of SKBR3 cells were transfected with plasmids expressing ESR1 fused to VP16 together with Gal4DBD alone (control) or Gal4DBD fused to ESR1 interacting peptides noted on the horizontal axis. Cells were then treated with the indicated ESR1 ligands (10^−7 M unless otherwise indicated). Interaction of ESR1 with the Gal4DBD peptide constructs was detected through activation of a Gal4-responsive luciferase reporter construct and was normalized to detected β-galactosidase activity expressed in a constitutive manner using a second vector. Normalized response was expressed as fold increase over the detected level of interaction between Gal4DBD alone and ESR1-VP16 in the absence of ligand (Veh). For FIG. 10E, the effect of SERMs and SERDs (10^−6 M) on the proliferation of MCF7 cells in response to E2 (10^−9 M) or insulin (2×10^−9 M) was evaluated as in FIG. 5. Statistically similar treatments (2-way ANOVA followed by Bonferroni comparison) are indicated by letters. […] The expression of ESR1 target genes responsive to (A) agonists, (B) primarily SERMs, or (C) SERMs and agonists was analyzed using RT qPCR following RNA isolation. mRNA expression was normalized (ΔΔCT analysis) to the similarly detected 36B4 housekeeping. The profiles presented in dendogram format were analyzed with the Ward hierarchical clustering algorithm (JMP 11) using standardized data.

[2] = tested on: LTED MCF7 cells; assay: LTED MCF7 cell proliferation assay; assay type: cell-based; settings: model of aromatase resistance, 10^-11-10^-6 M, 8 day assay
[3] = target: T1, ESR1 (Homo sapiens, UniProt P03372); assay: ESR1 expression in LTED MCF7 cells (immunoblot); assay type: cell-based; settings: 24 hours, SERDs 10^-6 M
T1 sequence (P03372 1-595): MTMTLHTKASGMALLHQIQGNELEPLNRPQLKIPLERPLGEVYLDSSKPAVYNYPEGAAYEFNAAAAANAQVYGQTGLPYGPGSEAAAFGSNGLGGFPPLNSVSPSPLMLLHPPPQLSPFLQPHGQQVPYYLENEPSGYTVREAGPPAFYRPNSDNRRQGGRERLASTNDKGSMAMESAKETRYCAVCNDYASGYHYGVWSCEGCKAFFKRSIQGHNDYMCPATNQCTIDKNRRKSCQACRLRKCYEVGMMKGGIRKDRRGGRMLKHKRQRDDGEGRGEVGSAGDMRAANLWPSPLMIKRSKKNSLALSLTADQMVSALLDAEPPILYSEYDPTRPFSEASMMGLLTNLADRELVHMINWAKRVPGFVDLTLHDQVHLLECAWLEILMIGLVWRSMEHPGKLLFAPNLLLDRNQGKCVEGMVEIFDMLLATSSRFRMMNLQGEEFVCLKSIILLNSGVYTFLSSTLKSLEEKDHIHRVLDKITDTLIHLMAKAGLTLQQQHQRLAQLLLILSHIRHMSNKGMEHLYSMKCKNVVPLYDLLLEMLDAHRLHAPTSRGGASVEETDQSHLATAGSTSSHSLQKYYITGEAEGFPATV
Experimental: MCF7 and SKBR3 cell lines were maintained in DMEM/F12 or RPMI media (Invitrogen), respectively, supplemented with 8% fetal bovine serum (FBS, Gemini), non-essential amino acids (Invitrogen), and sodium pyruvate (Invitrogen). Unless otherwise indicated, cells were plated for experiments in media lacking phenol red and supplemented with 8% charcoal stripped FBS (CFS, Gemini). LTED MCF7 cells were maintained and plated for experiments in phenol red free DMEM/F12 media supplemented with 8% CFS that had been charcoal stripped twice. 48 hours after plating, cells were treated with ESR1 ligands as indicated, and were harvested for immunoblot or real time quantitative PCR analysis 24 hours after treatment.
Expression of ESR1 and loading control cytokeratin 18 (CK18—FIG. 7A) in whole cell extracts were detected by immunoblot (top). ESR1 levels relative to CK18 were quantitated by densitometry using Adobe Photoshop (bottom). […] ESR1 expression was detected as in FIG. 6A. For FIGS. 6C-6D, LTED MCF7 cells were plated in phenol red free media supplemented with FBS that was stripped of growth factors twice using charcoal. For FIG. 6C, after 48 hours, cells were treated for 24 hours with E2 (10^−7 M) or SERDs (10^−6 M) and ESR1 was analyzed as in FIG. 6A.

[4] = tested on: MCF7 xenograft tumors; assay: MCF7 xenograft tumor study in estrogen-treated ovariectomized nu/nu mice; assay type: in vivo; settings: 20 mg/kg sc daily
Experimental: A total of 90 female Nu/Nu mice were ovariectomized and implanted subcutaneous simultaneously with an estrogen pellet (Innovative Research of America) releasing 0.72 mg estradiol (E2) over 60 days. 2 days later an approximately 6 mm^3 fragment of an MCF7 xenograft tumor (isolated from a recently sacrificed estrogen treated nu/nu mouse) was inserted subcutaneous into the axial mammary gland. Tumor growth (by caliper measurement) and animal body weight were monitored 3× weekly until tumor volume reached ˜0.2 cm^3. […] Treatments were formulated in sterile corn oil and were administered daily by subcutaneous injection. After 3 weeks of treatments, animals were euthanized and serum and tissues saved for analysis. FIG. 1B depicts tumor volume analyzed using non-linear curve fit and exponential growth calculation (Graphpad Prism), followed by two-way ANOVA and Bonferroni analysis.
Xenograft tumor analysis: Estrogen-stimulated MCF7 tumors were initiated in the axial mammary gland of 6-week old estrogen-treated (0.72 mg/60 days pellet sc, Innovative Research of America) ovariectomized female NU/NU mice (in-house colony) by serial transfer and were measured as described (Wardell et al., (2013) Clin Cancer Res 19 (9):2420-2431). […] Animal tissues were processed and analyzed as described (Wardell et al., (2013) Clin Cancer Res 19 (9):2420-2431).
The ability of RAD1901 (FIG. 5A) to modulate the […] estradiol (E2) dependent transcriptional activity of the human estrogen receptor alpha (ESR1) and human estrogen receptor beta (ESR2) was assessed in transiently transfected SKBR3 cells using a synthetic reporter gene. […] DNA content as assessed by fluorescence was measured as a surrogate for cell proliferation. The relative increase in DNA fluorescence was calculated by normalizing to baseline values detected in a duplicate plate of cells that was harvested on day 1 prior to the initial treatment. […] For FIG. 5F, expression of ESR1 target genes in tumors was analyzed essentially as in (C).

ESR1 expression levels [3]: downregulated ESR1 expression
Molecule: C[C@]12CC[C@@H]3c4ccc(O)cc4C[C@@H](CCCCCCCCC[S+]([O-])CCCC(F)(F)C(F)(F)F)[C@H]3[C@@H]1CC[C@@H]2O (stereo partly shown) [ICI, ICI 182,780]
insulin-stimulated proliferation [1]: efficiently inhibited
cell proliferation [2]: inhibited cell proliferation

Molecule: 4-hydroxytamoxifen [4OHT]
insulin-stimulated proliferation [1]: without effect

Molecule: CC/C(=C(\c1ccccc1)c1ccc(OCCN(C)C)cc1)c1ccccc1 [tamoxifen, reference compound]
expression of ESR1-target genes PGR and FHL1 in treated tumors [4]: suppress the expression of the ESR1-target genes PGR and FHL1 to the same degree
cell proliferation [2]: minimally effective

Molecule: O=C(c1ccc(OCCN2CCCCC2)cc1)c1c(-c2ccc(O)cc2)sc2cc(O)ccc12 [Ralox, raloxifene]
insulin-stimulated proliferation [1]: without effect
